SMILES strings stand for the structures. A value given as a limit tells only on which side of the number the result lay.

Data set [1] can be described thus: in vivo. The settings on record: male, Beagle, dog, po, 5 mg/kg.
Data set [2] is described as follows: in vivo. The settings on record: female, Balb/c, mouse, po, 10 mg/kg.
Data set [3] in a line: in vivo. The settings on record: male, Sprague-Dawley, rat, plasma, iv, 1 mg/kg.
Data set [4] can be described thus: in vivo. The settings on record: male, Sprague-Dawley, rat, po, 10 mg/kg.
Data set [5] is described as follows: in vivo. The settings on record: male, Beagle, dog, po, 5 mg/kg. The source holds these as a separate data set.
Data set [6] in a line: in vivo. The settings on record: male, Beagle, dog, po, 5 mg/kg. This is another data set of the same source.
Data set [7] in a line: in vivo. As to conditions: male, Beagle, dog, po, 5 mg/kg. The source holds these as a separate data set.
The nature of data set [8]: in vivo. The settings on record: male, Beagle, dog, po, 5 mg/kg. The source holds these as a separate data set.
Data set [9] is described as follows: in vivo. The settings on record: female, CD-1, mouse, po, 10 mg/kg.
A short description of data set [10]: in vivo. The settings on record: male, Beagle, dog, plasma, iv, 1 mg/kg.
Data set [11] in a line: in vivo. As to conditions: male, Sprague-Dawley, rat, po, 10 mg/kg. This is another data set of the same source.
Data set [12] is described as follows: in vivo. The settings on record: female, CD-1, mouse, po, 10 mg/kg. This is another data set of the same source.
Data set [13] in a line: in vivo. The settings on record: female, CD-1, mouse, po, 10 mg/kg. The source holds these as a separate data set.
The nature of another data set: in vitro. The settings on record: human, plasma.
Data set [14] can be described thus: in vivo. The settings on record: female, Balb/c, mouse, po, 10 mg/kg. The source holds these as a separate data set.
A short description of data set [15]: in vivo. The settings on record: male, Sprague-Dawley, rat, po, 10 mg/kg. The source holds these as a separate data set.
Data set [16] in a line: in vivo. The settings on record: female, Balb/c, mouse, po, 10 mg/kg. The source holds these as a separate data set.
Data set [17] can be described thus: in vivo. The settings on record: male, Sprague-Dawley, rat, po, 10 mg/kg. This is another data set of the same source.
A short description of data set [18]: in vivo. As to conditions: male, Sprague-Dawley, rat, po, 10 mg/kg. The source holds these as a separate data set.
Data set [19] in a line: physchem. As to conditions: glutathione (GSH) solution, 1 uM GSH.
A short description of data set [20]: physchem. As to conditions: glutathione (GSH) solution, 0.1 uM GSH.
The nature of data set [21]: in vivo. The settings on record: female, CD-1, mouse, po, 10 mg/kg. The source holds these as a separate data set.
A short description of data set [22]: in vivo. The settings on record: female, CD-1, mouse, plasma, iv, 1 mg/kg.
A short description of data set [23]: in vivo. As to conditions: female, CD-1, mouse, po, 10 mg/kg. This is another data set of the same source.

On to `C=C(C)C(=O)Nc1ccc(-c2c(-c3ccc(Oc4nccc(C)n4)c(F)c3)c3c(N)ncnc3n2C)cc1` [LIRAFUGRATINIB], for which the MRT last at 24 h was found to be 0.87 h in the data set “in vivo [1]”, 0.23 h in “in vivo [4]” and 2 h in “in vivo [9]”. In the data set “in vivo [2]”, this molecule registered an AUC(0-t) at 8 h of 20000 ng·h/mL. The clearance at 24 h in “in vivo [3]” worked out at 59.4 mL/min/kg; in “in vivo [10]” it was 24.9 mL/min/kg. The highest concentration (Cmax) at 24 h in the data set “in vivo [5]” amounted to 1360 ng/mL; in the data set “in vivo [12]” it was 5760 ng/mL; in the data set “in vivo [15]”, 111 ng/mL. Moreover, the bioavailability at 24 h in “in vivo [6]” turned out to be 75.4%; in “in vivo [18]” it was 16%. In addition, the half-life at 24 h in “in vivo [7]” is 2.3 h; in “in vivo [13]”, 2.4 h; in the data set “in vivo [17]” it was 0.77 h. Moreover, the values for the AUC(0-t) at 24 h in the data set “in vivo [8]” and in “in vivo [11]” were 2680 ng·h/mL and 448 ng·h/mL, respectively. Further, in “in vitro”, the half-life was above 4.82 h. The molecule also showed an MRT last at 8 h in the data set “in vivo [14]” of 2.7 h. This molecule also yielded a Cmax at 8 h in “in vivo [16]” of 3740 ng/mL.
In the case of `C=C(CO)C(=O)Nc1ccc(-c2c(-c3ccc(Oc4nccc(C)n4)cc3)c(C(N)=O)c3cnc(C)cn23)cc1`, the half-life in the data set “physchem [19]” was 0.9 h; in “physchem [20]”, 0.8 h.
In the data set “in vivo [21]”, `C=C(F)C(=O)Nc1ccc(-c2c(-c3ccc(Oc4nccc(C)n4)cc3)c(C(N)=O)c3cnc(C)cn23)c(F)c1` gave a bioavailability at 24 h of 41.9%. In addition, the clearance at 24 h in “in vivo [22]” worked out at 29.1 mL/min/kg. The molecule also gave an AUC(0-t) at 24 h in the data set “in vivo [23]” of 2470 ng·h/mL. Moreover, in the data set “in vitro”, the half-life is above 4.82 h.

In general, MRT last refers to a mean duration of stay, worked out from the concentration-time curve. The AUC(0-t) is exposure summed from dosing to a finite time, without extrapolation to infinity. A low value points to less exposure. What is called clearance is a measure of how efficiently the substance is removed, as volume per time. Low values mean a low capacity for elimination, high ones a high capacity for elimination. As usually defined, the Cmax is the maximum level reached in the sampled fluid or tissue. Usually bioavailability stands for dose-corrected exposure relative to a reference, in per cent. A high value points to good availability. The half-life is how long it takes for the measured level to halve.
